Experimental data as given in EP4800006A1, “NICOTINAMIDE PHOSPHORIBOSYL TRANSFERASE AGONIST AND USE THEREOF” (Nanjing Reju Therapeutics Co. Ltd., priority 2023, dated 2025).
≈ marks a conversion by molar mass, not a printed value.

Assays:
Solubility of compounds = format: physicochemical; conditions: acidic pH conditions
Description: The main objective of this example is to investigate the solubility of the compounds in Example 1.
Method: A certain amoun of NPL-00, NPL-000, and NPL-1 were weighed and transferred into centrifuge tubes, respectively. Solvent was added to each tube, and the pH value of the system was adjusted with hydrochloric acid and sodium hydroxide. The mixture was shaken for 30 s every 5 min, and the dissolution state was observed within 30 min. If incomplete dissolution was observed, additional solvent was supplemented, and the above operations were repeated until the compounds were completely dissolved, and the volume of solvent at this moment was recorded. The solubility of less than 0.1 mg/mL was defined as "insoluble."

C2C12 cells = assay: Differentiation of C2C12 cells (MYH1 immunostaining); format: cell-based; conditions: 0.3 µM, 7 days, medium with 2% HBS, vs control group; FIG. 4
Description: The main objective of this example is to investigate the promotive effect of the compounds in Example 1 on the differentiation of muscle stem cells.
Method: C2C12 cells were selected and seeded into culture plates. After stabilization for 48 h, the medium was replaced with a medium containing 2% HBS to induce differentiation of the C2C12 cells. Meanwhile, the treatment group was treated with 0.3 µM NPL-1, while the control group was treated with an equivalent volume of the compound solvent. After continuous culture for 7 days, immunohistochemical staining was performed using MYH1 antibody, and the cell nuclei were stained with DAPI. Finally, the two channels were merged to analyze the degree of cell differentiation.

mouse skin = assay: NAD+ level in mouse skin after topical application; format: in vivo, C57BL/6 mice; conditions: 3% topical application to the skin, 6 hours, compared to the control group; FIG. 3
Description: The main objective of this example is to investigate the effect of the Compound NPL-1 in Example 1 on elevating NAD+ level in mouse skin via topical administration.
Method: Male C57BL/6 mice with 8-9 weeks old were treated with 3% of the Compound NPL-1 via topical application to the skin, and mouse skin samples were collected 6 hours later for NAD+ level detection.

Hacat cells = assay: ROS in UVA-irradiated Hacat cells (DCFH-DA fluorescence), antioxidation; format: cell-based; conditions: 10 µM, 24 h then UVA, vs model group, FIG. 8
Description: The main objective of this example is to investigate the antioxidation effect of the compounds in Example 1.
Method: Hacat cells were selected and seeded into culture plates. After stabilization for 24 h, the NPL-1 group was treated with 10 µM NPL-1, while the control group and model group were treated with an equivalent volume of the compound solvent, respectively. After 24 h of treatment, all groups except the control group were irradiated with UVA for modeling. At 0.5 h after the modeling was completed, the fluorescent probe DCFH-DA was added and incubated for 0.5 h, followed by fluorescence intensity measurement to evaluate the expression level of ROS.

tibialis anterior = assay: CTX-induced muscle injury model (tibialis anterior, HE staining); format: in vivo, C57BL/6 mice; conditions: 3 mg/kg intraperitoneal once daily, 10 µM CTX into tibialis anterior, vs model group; FIG. 5
Description: The main objective of this example is to investigate the protective effect of the compounds in Example 1 in a muscle injury model. Method: Male C57BL/6 mice with 8-9 weeks old in the model group and the NPL-4 group were injected intraperitoneally with the corresponding solvent or compounds, respectively, for 1 consecutive week. Subsequently, 10 µM CTX was injected into the tibialis anterior for modeling. After another 7 days, the tibialis anterior was harvested for HE staining to evaluate the injury status of the tibialis anterior of the mice. The grouping was as follows: • Control group: 8 male C57BL/6 mice with 8-9 weeks old were treated with the same solvent as in the NPL-4 group via intraperitoneal injection once daily. One week later, normal saline was injected into the tibialis anterior for modeling, while intraperitoneal injection was continued. Seven days later, the tibialis anterior was harvested for HE staining. • Model group: 8 male C57BL/6 mice with 8-9 weeks old were treated with the same solvent as in the NPL-4 group via intraperitoneal injection once daily. One week later, 10 µM CTX was injected into the tibialis anterior for modeling, while intraperitoneal injection was continued. […]

Wild-type zebrafish = assay: DNA damage repair in zebrafish, hydrogen peroxide model (comet assay); format: in vivo; conditions: 0.25% for 5 days, DNA olive tail moment, vs model group, FIG. 11
Description: The main objective of this example is to investigate the repairing effect of the compounds in Example 1 on DNA damage.
Method: Wild-type zebrafish were placed in a 6-well plate. All groups except the control group were treated with hydrogen peroxide to establish a zebrafish DNA damage model. Meanwhile, the NPL-4 group was treated with 0.25% NPL-4 for 5 days, while the control group and model group were treated with an equivalent volume of the compound solvent. The medium was renewed daily. Subsequently, zebrafish samples were collected and ground to prepare cell suspensions. Electrophoresis was performed using a comet assay kit, and data were collected and analyzed using comet analysis software. The DNA olive tail moment value of zebrafish cells was analyzed to evaluate the degree of DNA damage.

U2OS cells = assay: Protective effect on U2OS cells against FK866-induced cytotoxicity (Cell Titer-Glo viability); format: cell-based; conditions: Homo sapiens, 10 nM FK866, test compound 10 µM, 72 h, viability relative to control minus that of model group, read-out: Percentage increase in cell viability
Description: The main objective of this example is to investigate the protective effects of the compounds in Example 1 against the cytotoxicity resulting from FK866-mediated reduction in NAD+ levels.
Method: U2OS cells were selected and seeded into culture plates. After cell stabilization for 1 day, 10 nM of FK866 was added to all groups except the control group to induce cell death. Meanwhile, the test compounds at a concentration of 10 µM were added to the corresponding drug treatment groups, respectively. An equivalent volume of the compound solvent was added to the control group and the model group, respectively. Following incubation for 72 h, Cell Titer-Glo Luminescent cell viability assay reagent (manufacturer: Promega) was added to each well. After mixing well and incubation for 10 minutes, luminescence was detected using a microplate reader with full-wavelength scanning. The pharmacological efficacy of the compounds, expressed as the percentage increase in cell viability, was calculated by subtracting the percentage of the cell viability in the model group relative to the control group from the percentage of the cell viability in the compound-treated group relative to the control group.

[1] = system: Transgenic zebrafish with green fluorescent mitochondria; assay: Mitochondrial function in zebrafish, cobalt chloride model; format: in vivo; conditions: 0.25%, 22 h then cobalt chloride 4 h, vs model group; FIG. 10
Description: The main objective of this example is to investigate the effect of the compounds in Example 1 on mitochondrial function.
Method: Transgenic zebrafish with green fluorescent mitochondria were placed in a 6-well plate. The NPL-4 group was treated with NPL-4 at a concentration of 0.25%, while the control group and model group were treated with an equivalent volume of the compound solvent. After treatment in the dark for 22 h, all groups except the control group were treated with cobalt chloride for modeling. Following incubation in the dark for additional 4 h, the fluorescence intensity of the zebrafish was detected.

HSF cells = assay: p16 mRNA in UVA-irradiated HSF cells (qPCR), anti-aging; format: cell-based; conditions: 10 µM, 24 h then UVA, mRNA by qPCR, vs model group; FIG. 7
Description: The main objective of this example is to investigate the anti-aging effect of the compounds in Example 1.
Method: HSF cells were selected and seeded into culture plates. After stabilization for 24 h, the NPL-4 group was treated with 10 µM NPL-4, while the control group and model group were treated with an equivalent volume of the compound solvent, respectively. After 24 h of treatment, all groups except the control group were irradiated with UVA to induce cell senescence. The cells were then collected and RNA was extracted. The mRNA level of the senescence-associated gene p16 was determined using qPCR.

Work on `CC(C)(C)c1cccc(C#N)c1OCC(=O)Nc1ccc(O)cc1` [NPL-000] yielded a solubility (Solubility of compounds) of under 100 µg/mL.
Compound `CC(C)(C)c1ccccc1OCC(=O)Nc1ccc(O)cc1` [NPL-00] has a solubility (Solubility of compounds) of under 100 µg/mL.
For `CC(C)(C)c1ncccc1OCC(=O)Nc1ccc(O)cc1` [NPL-1], the “expression level of MYH1” value (C2C12 cells) was “significantly higher”, the “NAD+ level in the mouse skin” value (mouse skin) was “effectively elevated” and the “expression level of ROS” value (Hacat cells) was “markedly decreased”. It also gave a solubility (Solubility of compounds) of 7000 µg/mL (≈ 23.3 mM).
In the case of `CC(=O)Nc1ccc(NC(=O)COc2cccnc2C(C)(C)C)cc1` [NPL-4], the damaged area (tibialis anterior) is reported as “significantly smaller”, the DNA damage (Wild-type zebrafish) is reported as “significantly ameliorated” and the increase in cell viability over FK866 model group at 10 µM (U2OS cells) is reported as 128%. The mitochondrial fluorescence intensity [1] was “significantly enhanced” and the “expression of p16” value (HSF cells) was “markedly down-regulated”.
Work on `CC(C)(C)c1ncncc1CCC(=O)Nc1ccc(O)cc1` [NPL-51, 3-(4-(tert-butyl)pyrimidin-5-yl)-N-(4-hydroxyphenyl)propionamide] yielded an increase in cell viability over FK866 model group at 10 µM (U2OS cells) of 105%.
`CC(=O)Nc1ccc(NC(=O)CCc2nccnc2C(C)(C)C)cc1` [NPL-67, N-(4-acetaminophenyl)-3-(3-(tert-butyl)pyrazin-2-yl)propionamide] gave an increase in cell viability over FK866 model group at 10 µM (U2OS cells) of 99.3%.
`CC(=O)Nc1ccc(NC(=O)COc2nccnc2C(C)(C)C)cc1` [NPL-70, N-(4-acetaminophenyl)-2-((3-(tert-butyl)pyrazin-2-yl)oxy)acetamide] gave an increase in cell viability over FK866 model group at 10 µM (U2OS cells) of 112%.
For `CC(C)(C)c1nccnc1OCC(=O)Nc1ccc2[nH]c(=O)oc2c1` [NPL-71, 2-((3-(tert-butyl)pyrazin-2-yl)oxy)-N-(2-oxo-2,3-dihydrobenzo[d]oxazol-6-yl)acetamide], the increase in cell viability over FK866 model group at 10 µM (U2OS cells) was 106%.
For `CC(C)(C)c1nccnc1CCC(=O)Nc1ccc(O)cc1` [NPL-74, 3-(3-(tert-butyl)pyrazin-2-yl)-N-(4-hydroxyphenyl)propionamide], the increase in cell viability over FK866 model group at 10 µM (U2OS cells) was 98.6%.
Work on `CC(C)(C)c1nccnc1CCC(=O)Nc1ccc2[nH]c(=O)oc2c1` [NPL-76, 3-(3-(tert-butyl)pyrazin-2-yl)-N-(2-oxo-2,3-dihydrobenzo[d]oxazol-6-yl)propionamide] yielded an increase in cell viability over FK866 model group at 10 µM (U2OS cells) of 99%.
In the case of `CC(=O)Nc1ccc(NC(=O)COc2ncncc2C(C)(C)C)cc1` [NPL-79, 2-((5-(tert-butyl)pyrimidin-4-yl)oxy)-N-(4-(acetamido)phenyl)acetamide], the increase in cell viability over FK866 model group at 10 µM (U2OS cells) is reported as 97.9%.
